# Measured values as given in US5356904A, “Carbostyril oxytocin receptor antagonists” (Merck & Co., Inc., priority 1992, dated 1994).
# Like-named read-outs stand apart in the source and are kept apart here.
# Assays:
# uterine OT receptors = biological target: T1, uterine OT receptors (Rattus norvegicus, UniProt P70536); assay: [3H]oxytocin (OT) radioligand binding, uterine membranes; conditions: for inhibition at 10 µM: read-out: % Inhibition rat OT
# T1 construct: using a crude membrane preparation of uteri; from tissue; host or cells: rat uterus, crude membrane preparation (DES-treated rats)
# T1 sequence (P70536 1-388): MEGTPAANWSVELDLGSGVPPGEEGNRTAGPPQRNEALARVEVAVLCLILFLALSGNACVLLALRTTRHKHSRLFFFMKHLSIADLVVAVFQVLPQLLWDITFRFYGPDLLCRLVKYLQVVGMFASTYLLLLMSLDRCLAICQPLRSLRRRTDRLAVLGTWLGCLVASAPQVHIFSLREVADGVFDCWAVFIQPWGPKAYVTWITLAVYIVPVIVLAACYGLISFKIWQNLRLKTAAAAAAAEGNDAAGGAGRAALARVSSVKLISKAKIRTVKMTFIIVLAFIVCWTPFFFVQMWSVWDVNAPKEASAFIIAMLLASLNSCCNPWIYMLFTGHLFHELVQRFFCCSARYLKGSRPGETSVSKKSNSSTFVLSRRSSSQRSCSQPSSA
# AVP-V1 sites = biological target: T2, AVP-V1 sites (Rattus norvegicus, UniProt P30560); assay: [3H]vasopressin (AVP) radioligand binding, liver membranes (AVP-V1 sites); conditions: for inhibition at 3 µM: read-out: % Inhibition rat V1
# T2 construct: crude membrane preparation of male rat liver; from tissue; host or cells: male rat liver, crude membrane preparation
# T2 sequence (P30560 whole entry): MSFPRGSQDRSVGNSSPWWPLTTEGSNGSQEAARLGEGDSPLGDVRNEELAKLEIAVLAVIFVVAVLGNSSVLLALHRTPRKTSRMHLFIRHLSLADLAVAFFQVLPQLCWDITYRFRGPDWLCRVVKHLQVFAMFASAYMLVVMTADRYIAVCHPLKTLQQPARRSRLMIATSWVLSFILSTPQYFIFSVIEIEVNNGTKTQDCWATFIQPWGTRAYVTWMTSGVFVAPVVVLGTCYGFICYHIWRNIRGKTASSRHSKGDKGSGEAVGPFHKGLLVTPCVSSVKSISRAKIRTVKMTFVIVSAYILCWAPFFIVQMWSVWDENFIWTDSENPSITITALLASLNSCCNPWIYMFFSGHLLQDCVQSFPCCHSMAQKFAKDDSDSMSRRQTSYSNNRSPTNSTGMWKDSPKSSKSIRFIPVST
# AVP-V2 sites = AVP-V2 sites (Rattus norvegicus, UniProt Q00788); assay: [3H]vasopressin (AVP) radioligand binding, kidney medulla membranes (AVP-V2 sites); conditions: for inhibition at 3 µM: read-out: % Inhibition rat V2
# Chain of AVP-V2 sites (Q00788 whole entry): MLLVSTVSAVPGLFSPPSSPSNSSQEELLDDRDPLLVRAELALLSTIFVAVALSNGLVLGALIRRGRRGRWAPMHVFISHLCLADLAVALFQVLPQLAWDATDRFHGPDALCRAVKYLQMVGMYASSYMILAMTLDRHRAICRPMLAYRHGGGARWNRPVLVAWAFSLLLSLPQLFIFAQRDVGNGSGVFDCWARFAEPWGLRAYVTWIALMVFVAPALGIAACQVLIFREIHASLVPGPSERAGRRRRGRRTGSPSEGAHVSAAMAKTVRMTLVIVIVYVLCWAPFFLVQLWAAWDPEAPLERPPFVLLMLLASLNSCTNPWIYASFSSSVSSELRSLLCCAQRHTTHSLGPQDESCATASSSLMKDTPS
compound,measurement,setting,value
"Cc1ccc(C(=O)N2CCC(N3C(=O)CCc4ccccc43)CC2)c(C)c1 [o-CH3, p-CH3]",inhibition at 10 µM,uterine OT receptors; @ 10 uM,79%
same,inhibition at 3 µM,AVP-V1 sites; @ 3 uM,48%
same,inhibition at 3 µM,AVP-V2 sites; @ 3 uM,55%
"O=C(c1ccc([N+](=O)[O-])cc1Cl)N1CCC(N2C(=O)CCc3ccccc32)CC1 [o-Cl, p-NO2]",IC50,uterine OT receptors,15000 nM
same,inhibition at 3 µM,AVP-V1 sites,34%
same,inhibition at 3 µM,AVP-V2 sites,6%
"CC1(C)[C@@H]2CC[C@@]1(CS(=O)(=O)N1CCC(N3C(=O)CCc4ccccc43)CC1)C(=O)C2 [SO2, (+)-camphor-10-yl]",IC50,uterine OT receptors,1900 nM
same,IC50,AVP-V1 sites,8000 nM
same,IC50,AVP-V2 sites,72 µM
COc1ccccc1C(=O)N1CCC(N2C(=O)CCc3ccccc32)CC1 [o-OCH3],IC50,uterine OT receptors,1100 nM
same,IC50,AVP-V1 sites,380 nM
same,IC50,AVP-V2 sites,66 µM
"Nc1ccc(CC(=O)N2CCC(N3C(=O)CCc4ccccc43)CC2)cc1 [CO, p-CH2C6H4NH2]",inhibition at 1 µM,uterine OT receptors; @ 1 uM,19%
same,inhibition at 3 µM,AVP-V1 sites; @ 3 uM,27%
same,inhibition at 3 µM,AVP-V2 sites; @ 3 uM,1%
"O=C(c1ccc2[nH]ccc2c1)N1CCC(N2C(=O)CCc3ccccc32)CC1 [CO, 5-indolyl]",IC50,uterine OT receptors,1700 nM
same,IC50,AVP-V1 sites,240 nM
same,IC50,AVP-V2 sites,56 µM
O=C(c1ccc(-c2ccccc2)cc1)N1CCC(N2C(=O)CCc3ccccc32)CC1 [C6H5],IC50,uterine OT receptors,3500 nM
same,inhibition at 3 µM,AVP-V1 sites,65%
same,inhibition at 3 µM,AVP-V2 sites,2%
CC(C)(C)c1ccc(C(=O)N2CCC(N3C(=O)CCc4ccccc43)CC2)cc1 [tert-C4H9],inhibition at 10 µM,uterine OT receptors,77%
same,IC50,AVP-V1 sites,800 nM
same,IC50,AVP-V2 sites,~70 µM
O=C(c1ccc(C(F)(F)F)cc1)N1CCC(N2C(=O)CCc3ccccc32)CC1 [CF3],inhibition at 10 µM,uterine OT receptors,69%
same,IC50,AVP-V1 sites,800 nM
same,IC50,AVP-V2 sites,60 µM
COc1ccc(C(=O)N2CCC(N3C(=O)CCc4ccccc43)CC2)c(OC)c1 [Example 5],IC50,uterine OT receptors,560 nM
same,IC50,AVP-V1 sites,39 nM
"O=C(c1cccc2ccccc12)N1CCC(N2C(=O)CCc3ccccc32)CC1 [CO, 1-naphthyl]",inhibition at 10 µM,uterine OT receptors; @ 10 uM,69%
same,inhibition at 3 µM,AVP-V1 sites; @ 3 uM,17%
same,inhibition at 3 µM,AVP-V2 sites; @ 3 uM,5%
"COc1ccc(C(=O)N2CCC(N3C(=O)CCc4ccccc43)CC2)c(OC)c1 [o-OCH3, p-OCH3 (drawing 527)]",IC50,AVP-V2 sites,28 µM
"O=C(c1ccc(Cl)cc1Cl)N1CCC(N2C(=O)CCc3ccccc32)CC1 [o-Cl, p-Cl]",inhibition at 10 µM,uterine OT receptors; @ 10 uM,7%
same,inhibition at 3 µM,AVP-V1 sites; @ 3 uM,34%
same,inhibition at 3 µM,AVP-V2 sites; @ 3 uM,1%
"COc1ccc(CC(=O)N2CCC(N3C(=O)CCc4ccccc43)CC2)cc1 [CO, p-CH2C6H4OCH3]",IC50,uterine OT receptors,2400 nM
same,IC50,AVP-V1 sites,6000 nM
same,IC50,AVP-V2 sites,> 100 µM
O=C(c1ccc(OCCCN2C(=O)c3ccccc3C2=O)cc1)N1CCC(N2C(=O)CCc3ccccc32)CC1 [Example 2],IC50,uterine OT receptors,1100 nM
O=C(c1ccc(OCCCN2C(=O)c3ccccc3C2=O)cc1)N1CCC(N2C(=O)CCc3ccccc32)CC1 [O(CH2)3NPth (drawing 528)],IC50,AVP-V2 sites,≥ 100 µM
"CC(=O)Nc1ccc(CC(=O)N2CCC(N3C(=O)CCc4ccccc43)CC2)cc1 [CO, p-CH2C6H4NHAc]",IC50,uterine OT receptors,2300 nM
same,IC50,AVP-V1 sites,950 nM
same,IC50,AVP-V2 sites,> 100 µM
"O=C(c1ccc2ccccc2c1)N1CCC(N2C(=O)CCc3ccccc32)CC1 [CO, 2-naphthyl]",inhibition at 10 µM,uterine OT receptors,75%
same,inhibition at 3 µM,AVP-V1 sites,75%
same,inhibition at 3 µM,AVP-V2 sites,7%
"COc1ccc(S(=O)(=O)N2CCC(N3C(=O)CCc4ccccc43)CC2)cc1 [SO2, p-C6H4OCH3]",inhibition at 10 µM,uterine OT receptors; @ 10 uM,36%
same,inhibition at 3 µM,AVP-V1 sites; @ 3 uM,15%
same,inhibition at 3 µM,AVP-V2 sites; @ 3 uM,12%
COc1cccc(C(=O)N2CCC(N3C(=O)CCc4ccccc43)CC2)c1 [m-OCH3],IC50,uterine OT receptors,2700 nM
same,IC50,AVP-V1 sites,2100 nM
same,IC50,AVP-V2 sites,> 100 µM
